These are literature values, as cited in patent US10328111B2, “Water-soluble phytocannabinoid formulations” (Solva, LLC, priority 2014, dated 2019).

With `C=C(C)[C@@H]1CCC(C)=C[C@H]1c1c(O)cc(CCCCC)cc1O` [cannabidiol], the oral bioavailability entry is on record as “about 6%”.
